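Each compound was tested at five concentrations against cells in 96-well plates for 48 hours. At the TGI there is no net growth.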

Test systems include SK-OV-3 ovarian; TK-10 renal; OVCAR-3 ovarian; SK-MEL-2 melanoma; NCI-H226 lung; UACC-257 melanoma; ACHN renal; U251 CNS.
What all share (assay): NCI anticancer screen, dose series, 48 h

For the molecule `O=C1/C(=C\c2cccc(Oc3ccccc3)c2)S(=O)(=O)C(c2ccccc2)N1c1ccc(Cl)cc1` (stereo not drawn), the TGI is > 100 µM in the assay with SK-OV-3 ovarian; > 100 µM with TK-10 renal; 32.7 µM with OVCAR-3 ovarian; 34.5 µM in the assay with SK-MEL-2 melanoma; > 100 µM in the assay on NCI-H226 lung; 94.3 µM in the assay on UACC-257 melanoma. Moreover, the TGI turned out to be 36.9 µM with ACHN renal and 30.5 µM in the assay with U251 CNS.

Consider `CC(=O)C(=[N+]=[N-])C(=O)OC(C)(C)C#N`, for which the TGI with SK-OV-3 ovarian, with TK-10 renal, with OVCAR-3 ovarian, with SK-MEL-2 melanoma, with NCI-H226 lung and in the assay with UACC-257 melanoma was > 10 µM each time. Moreover, the TGI in the assay on ACHN renal and in the assay with U251 CNS was > 10 µM throughout.

For the molecule `N#CCCN(CCC#N)c1ccc(C(N=Nc2ccccc2)=Nc2ccccc2)cc1`, the TGI with SK-OV-3 ovarian, in the assay on TK-10 renal, in the assay on OVCAR-3 ovarian, in the assay with SK-MEL-2 melanoma, in the assay on NCI-H226 lung and with UACC-257 melanoma was > 100 µM throughout. The TGI in the assay on ACHN renal and in the assay on U251 CNS was > 100 µM in each case.

Regarding `CC1(C2(C)OC(=O)c3ccccc32)OC(=O)c2ccccc21` (stereo not drawn), the TGI with SK-OV-3 ovarian, in the assay with TK-10 renal, in the assay with OVCAR-3 ovarian, in the assay with SK-MEL-2 melanoma, in the assay with NCI-H226 lung and in the assay with UACC-257 melanoma was > 100 µM throughout. Further, the TGI in the assay on ACHN renal and in the assay with U251 CNS was > 100 µM throughout.

For the molecule `Clc1ccc(Oc2ccc(N=Cc3ccc(Cl)cc3Cl)cc2Cl)cc1`, the TGI with SK-OV-3 ovarian, in the assay on TK-10 renal, in the assay with OVCAR-3 ovarian, in the assay on SK-MEL-2 melanoma, with NCI-H226 lung and in the assay with UACC-257 melanoma was > 100 µM throughout. Further, the TGI in the assay with ACHN renal is > 100 µM; in the assay with U251 CNS, 89.3 µM.

Take `COc1cc(CCCOC(=O)/C=C/c2ccc(O)c(O)c2)cc(O)c1O`: the TGI in the assay on SK-OV-3 ovarian, in the assay with TK-10 renal, in the assay on OVCAR-3 ovarian, in the assay on SK-MEL-2 melanoma, in the assay with NCI-H226 lung and in the assay on UACC-257 melanoma was > 100 µM each time. Moreover, the TGI with ACHN renal and with U251 CNS was > 100 µM in each case.

With `O=C/C(=C(/Br)I)c1ccccc1`, the TGI with SK-OV-3 ovarian was found to be 23.2 µM; with TK-10 renal, 20.2 µM; in the assay on OVCAR-3 ovarian, 7.65 µM; in the assay on SK-MEL-2 melanoma it was 13.5 µM; with NCI-H226 lung, 26 µM; with UACC-257 melanoma, 17.8 µM. Moreover, the figures for the TGI with ACHN renal and in the assay with U251 CNS were 9.63 µM and 13.7 µM, respectively.

As for `CC1=C2c3c(C)ccc4ccc(C)c(c34)C2(O)C(C)C1=O` (stereo not drawn), the TGI with SK-OV-3 ovarian, in the assay on TK-10 renal, in the assay with OVCAR-3 ovarian, in the assay with SK-MEL-2 melanoma, with NCI-H226 lung and with UACC-257 melanoma was > 100 µM throughout. For the same molecule, the TGI in the assay with ACHN renal and with U251 CNS was > 100 µM throughout.

For `CCCc1c(OC)c(=O)c2c(OC)cc(OC)c3c4c(OC)cc(OC)c5c(=O)c(OC)c(CCC)c(c1c23)c54`, the TGI in the assay on SK-OV-3 ovarian stood at 30.4 µM; in the assay with TK-10 renal it was 36.8 µM; with OVCAR-3 ovarian it was 31.8 µM; in the assay with SK-MEL-2 melanoma it was 49.8 µM; with NCI-H226 lung it was 38.9 µM; in the assay on UACC-257 melanoma, 46.6 µM. For the same molecule, the TGI with ACHN renal was found to be 29.3 µM; with U251 CNS, 29.6 µM.

In the case of `CN(C)CCNc1ccc2c(=O)n(CCN(C)C)c(=O)n3c4ccc([N+](=O)[O-])cc4c(=O)c1c23`, the TGI in the assay on SK-OV-3 ovarian came to 6.72 µM; in the assay on TK-10 renal, 7.1 µM; in the assay with OVCAR-3 ovarian, 2.27 µM; in the assay on SK-MEL-2 melanoma, 1.31 µM; in the assay on NCI-H226 lung it was 4.01 µM; in the assay with UACC-257 melanoma, 4.42 µM. In addition, the TGI in the assay with ACHN renal turned out to be 3.83 µM; in the assay with U251 CNS it was 2.88 µM.

As to `CC1(c2nc3cc(Cl)c(Cl)cc3[nH]2)CCC(CO)C(C)(C)O1` (stereo not drawn), the TGI in the assay with SK-OV-3 ovarian was > 100 µM; with TK-10 renal it was > 100 µM; in the assay with OVCAR-3 ovarian, 74.3 µM; with SK-MEL-2 melanoma it was 90.4 µM; in the assay with NCI-H226 lung, 56.6 µM; in the assay with UACC-257 melanoma it was > 100 µM. For the same molecule, the TGI in the assay with ACHN renal and in the assay on U251 CNS was > 100 µM throughout.

For the molecule `CC(C)(C)N(Cc1ccc2c(c1)OCO2)C(=O)/C=C\S(=O)c1ccccc1` (stereo not drawn), the TGI in the assay on SK-OV-3 ovarian came out at 9.38 µM; with TK-10 renal it was 17 µM; in the assay with OVCAR-3 ovarian it was 7.4 µM; with SK-MEL-2 melanoma, 9.11 µM; with NCI-H226 lung, 11.2 µM; in the assay on UACC-257 melanoma, 12.5 µM. Moreover, the figures for the TGI in the assay with ACHN renal and with U251 CNS were 15.2 µM and 14.9 µM, respectively.

Take `CC1(C23CC4CC(CC(C4)C2)C3)n2c(=O)n(-c3ccccc3)c(=O)n2C1(C)C12CC3CC(CC(C3)C1)C2` (stereo not drawn): the TGI with SK-OV-3 ovarian, in the assay with TK-10 renal, with OVCAR-3 ovarian, in the assay with SK-MEL-2 melanoma, with NCI-H226 lung and in the assay on UACC-257 melanoma was > 100 µM in each case. Moreover, the TGI with ACHN renal and in the assay with U251 CNS was > 100 µM each time.

Regarding `O=c1cc(N2CCOCC2)[nH]c(=O)n1-c1cccc(C(F)(F)F)c1`, the TGI with SK-OV-3 ovarian, in the assay with TK-10 renal, with OVCAR-3 ovarian, with SK-MEL-2 melanoma, in the assay on NCI-H226 lung and in the assay on UACC-257 melanoma was > 100 µM each time. For the same molecule, the TGI in the assay with ACHN renal and in the assay with U251 CNS was > 100 µM throughout.

Regarding `Cc1ccc(S(=O)(=O)NN=C2CCCCCCCCCCC2)cc1`, the TGI in the assay on SK-OV-3 ovarian, with TK-10 renal, in the assay with OVCAR-3 ovarian, with SK-MEL-2 melanoma, in the assay with NCI-H226 lung and in the assay on UACC-257 melanoma was > 100 µM each time. Further, the TGI in the assay on ACHN renal and in the assay with U251 CNS was > 100 µM in each case.

In the case of `COc1ccc(-c2csc(=Nc3ccccc3)n2CC(O)c2ccc([N+](=O)[O-])cc2)cc1` (stereo not drawn), the TGI in the assay with SK-OV-3 ovarian, in the assay with TK-10 renal, with OVCAR-3 ovarian, with SK-MEL-2 melanoma, in the assay with NCI-H226 lung and in the assay with UACC-257 melanoma was > 100 µM throughout. The TGI with ACHN renal and in the assay with U251 CNS was > 100 µM throughout.

The values above are taken from PubChem BioAssay (NCI).
